Measurements reported in US20230250054A1, “SELECTIVE HISTONE DEACETYLASE 6 INHIBITORS” (The Board of Trustees of the University of Illinois, priority 2020, published 2023).

Columns and labels:
HDAC3 = target: T1, HDAC3 (Homo sapiens, UniProt O15379); test: Fluorescence-based HDAC inhibition assay, HDAC3; type: biochemical; details: for IC50: 10 μM Ac-GAK(Ac)-AMC substrate, mean of two experiments ± SEM
T1 construct: made in house; host or cells: HEK293/T17 cells, transient transfection
Procedure: Briefly, transiently transfected cells were harvested three days post-transfection and the cell pellets resuspended in a lysis buffer (50 mM Tris, 150 mM NaCl, 10 mM KCl, 2 mM MgCl2, 10% glycerol, 0.2% NP-40, 2 Units/mL benzonase, pH 8) supplemented with a cocktail of protease inhibitors (Roche, Basel, Switzerland). Cells were lysed by sonication (30 W; 3×20 s) on ice, and the cell lysate cleared by centrifugation at 40 000×g for 30 min at 4° C. […] Purified proteins were concentrated to 1 mg/mL, aliquoted, flash-frozen in liquid nitrogen, and stored at −80° C. until further use.
Briefly, individual HDACs were preincubated with dilution series of tested inhibitors (0-100 μM) in a 384-well plate in the total volume of 40 μL for 10 min at 37° C. in a reaction buffer comprising 50 mM HEPES, 140 mM NaCl, 10 mM KCl, 1 mM TCEP, 0.1% BSA, pH 7.4. Deacetylation reaction was started by the addition of 10 μL of a 10 μM substrate into the HDAC/inhibitor mixture. Following the 30 min incubation at 37° C., the reaction was terminated by the addition of 25 μL of the trypsin solution (4 mg/mL). Fluorescence development by trypsin was carried out at 37° C. for 15 and 60 min for Ac-GAK(Ac)-AMC and Boc-Lys(TFA)-AMC substrate, respectively. […] Non-linear regression analysis was employed to calculate IC50 values using the GraphPad Prism software. […] Reactions without the enzyme or the inhibitor were used to define 0% and 100% of the HDAC activity, respectively.

Ac-α-tubulin = test: Immunoblot of Ac-α-tubulin in WM164 melanoma cells; type: cell-based, human; details: 0.1 to 10 μM, overnight
Procedure: (§1) The SM1 murine melanoma cells were obtained from Dr. A. Ribas at the University of California, Los Angeles. WM164 human melanoma cells were obtained from ATCC. The cells were cultured in an incubator in RPMI 1640, 1% penicillin-streptomycin, and 10% fetal bovine serum at 37° C. with 5% CO2. […] For STAT3 phosphorylation assays, cells were pre-treated with or without HDAC6i (5 μM) for overnight followed by treatment with recombinant human IL-6 (Biolegend) for 20 min. PBS was added as a control. RAW 264.7 macrophages were purchased from ATCC and cultured in DMEM medium supplemented with 10% FBS, 1% non-essential amino acids, and 2-mercaptoethanol (50 μM). […] Cytotoxicity assay was performed using CellTox Green (Promega, Cat #G8731) following the manufacturer's instructions, and fluorescence readings were obtained on Spectramax i3 (Molecular Devices) multimode plate reader at wavelengths EX 485 nm and EM 520 nm. […]
(§2) The cells were harvested and lysed with RIPA buffer (ThermoScientific, 89900) containing protease and phosphatase inhibitors (ThermoScientific, 78440) by sonication in Bioruptor (Diagenode) for 8 cycles of 30 seconds ON and 30 seconds OFF on high setting. To assess the expression of proteins, total protein samples were heat-denatured in SDS sample loading buffer, and 15-20 μg of protein was analysed on 4-20% SDS-PAGE gels (Bio-Rad, 456-1093). […]

Ac—H3 = test: Immunoblot of Ac-H3 in WM164 melanoma cells; type: cell-based, human; details: 0.1 to 10 μM, overnight
Procedure: as §1, §2

STAT3 = test: IL-6 induced STAT3 phosphorylation in WM164 melanoma cells; type: cell-based, human; details: WM164 cells pre-treated with 5 μM, then IL-6 (30 ng/mL) for 20 min, vs IL-6 alone
Procedure: as §1, §2

immune cells = test: Immune cell phenotyping by flow cytometry in the SM1 melanoma model; type: in vivo, C57BL/6 mice
Procedure: To understand the immunomodulatory properties of Suprastat, a comprehensive immune cell phenotyping by flow cytometry was performed. […] (see, e.g., Knox et al., Sci. Rep. 9: 6136 (2019)). […] A significant change in immunosuppressive T-regs (FIG. 6F) was not observed. […] (see, e.g., Knox et al., Sci. Rep. 9: 6136 (2019)).

in vitro = details: rat, liver microsomes
plasma protein = test: Protein binding in human plasma; details: plasma protein-bound fraction, mean with standard error
[1] = system: SM1 murine melanoma cells; test: CellTox Green cytotoxicity assay in SM1 cells; type: cell-based; details: 24 h
Procedure: The SM1 murine melanoma cells were obtained from Dr. A. Ribas at the University of California, Los Angeles. WM164 human melanoma cells were obtained from ATCC. The cells were cultured in an incubator in RPMI 1640, 1% penicillin-streptomycin, and 10% fetal bovine serum at 37° C. with 5% CO2. […] For STAT3 phosphorylation assays, cells were pre-treated with or without HDAC6i (5 μM) for overnight followed by treatment with recombinant human IL-6 (Biolegend) for 20 min. PBS was added as a control. RAW 264.7 macrophages were purchased from ATCC and cultured in DMEM medium supplemented with 10% FBS, 1% non-essential amino acids, and 2-mercaptoethanol (50 μM). RAW macrophages were treated with 1 μM, 5 μM, and 10 μM of Suprastat overnight before collecting the lysates for immunoblot assay. Cytotoxicity assay was performed using CellTox Green (Promega, Cat #G8731) following the manufacturer's instructions, and fluorescence readings were obtained on Spectramax i3 (Molecular Devices) multimode plate reader at wavelengths EX 485 nm and EM 520 nm. SM1 cells were treated with compounds at various concentrations for 24 h to determine cytotoxicity.

T1 sequence (O15379 whole entry): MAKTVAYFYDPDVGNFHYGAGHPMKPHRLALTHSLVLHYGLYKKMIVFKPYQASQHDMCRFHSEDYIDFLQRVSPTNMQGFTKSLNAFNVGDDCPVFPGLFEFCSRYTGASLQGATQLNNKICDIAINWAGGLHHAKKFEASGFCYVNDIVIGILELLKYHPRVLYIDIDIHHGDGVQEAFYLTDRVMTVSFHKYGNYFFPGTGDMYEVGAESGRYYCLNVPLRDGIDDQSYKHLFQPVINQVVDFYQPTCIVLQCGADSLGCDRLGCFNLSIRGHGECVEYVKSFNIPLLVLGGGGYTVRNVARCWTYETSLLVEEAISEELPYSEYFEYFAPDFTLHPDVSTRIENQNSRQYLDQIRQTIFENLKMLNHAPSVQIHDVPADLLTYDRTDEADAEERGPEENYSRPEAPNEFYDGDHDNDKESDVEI
T1 sequence (Q9Y618 389-480 partner limits assumed): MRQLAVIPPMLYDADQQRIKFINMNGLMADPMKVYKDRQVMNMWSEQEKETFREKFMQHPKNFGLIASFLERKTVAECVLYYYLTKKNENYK

SMILES | SI (HDAC6 selectivity index over HDAC3) (HDAC3) | IC50 (HDAC3) [nM] | levels of acetylated α-tubulin (Ac-α-tubulin) (Ac-α-tubulin) | levels of acetylated histone H3 (Ac—H3) (Ac—H3) | Y705 phosphorylation of STAT3 (STAT3) | F4/80+CD206+ pro-tumor M2 macrophages (immune cells; flow cytometry) | natural killer (NK) cells (immune cells; flow cytometry) | percentage of CD8+ central memory (CM) cells (immune cells; flow cytometry) | M1/M2 ratio (immune cells; relative to control and anti-PD1 groups) | half-life (in vitro) [h] | Human plasma binding (%) (plasma protein) | Human plasma binding (%) (plasma protein; listed as Suprastat) | concentration at which cytotoxicity starts [1] [µM]
NCc1ccc(NC(=O)N(CCCCO)Cc2ccc(C(=O)NO)cc2)cc1 [Compound 6a, 4-((3-(4-(Aminomethyl)phenyl)-1-(4-hydroxybutyl)ureido)methyl)-N-hydroxybenz-amide] | 880 | 352 ± 2 | highest Ac-α-tubulin level | slight increase in the levels of Ac—H3 | decreased Y705 phosphorylation of STAT3 | significantly decreased | positive trend | increase in the percentage of CD8+ central memory (CM) cells | significantly higher M1/M2 ratio | 2.88 | 1.9% | 1.9 | 
CCCCN(Cc1ccc(C(=O)NO)cc1)C(=O)Nc1ccc(CN)cc1 [Compound 6b, 4-((3-(4-(Aminomethyl)phenyl)-1-butylureido)methyl)-N-hydroxybenzamide] | 492 | 443 ± 108 |  |  |  |  |  |  |  |  | approximately 50% |  | 10
O=C(NO)c1ccc(CN(CCCCO)C(=O)Nc2ccccc2)cc1 [Compound 6c, reference compound] |  | 581 ± 18 |  |  |  |  |  |  |  |  | approximately 50% |  | 
